Counter-ions that a name gives are not always drawn.
How the values were obtained:
A549 cells = test: Inhibition of PGE2 production in A549 cell (IL-1β stimulated); format: cell-based, human; details: Homo sapiens, A549, 24 h, IL-1β 5 ng/well, PGE2 in culture medium
Procedure, shortened: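 A549 cells preincubated 60 min with compound in RPMI/3% FBS (final DMSO 0.10), then stimulated with IL-1β (5 ng/well) for 24 h at 37 °C. PGE2 measured by HTRF and PGF2α by EIA in medium; IC50 from inhibition relative to stimulated minus unstimulated production.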

human mPGES-1 = human mPGES-1 (Homo sapiens (Human), UniProt O14684); test: mPGES-1 inhibiting activity (microsome fractions, PGE2 by HTRF); format: biochemical; details: microsomes from CHO-K1 cells transfected with human mPGES-1; PGH2 1 μM, 4° C., 60 seconds; read-out: mPGES-1 Inhibition IC50
human mPGES-1, sequence (O14684 whole entry): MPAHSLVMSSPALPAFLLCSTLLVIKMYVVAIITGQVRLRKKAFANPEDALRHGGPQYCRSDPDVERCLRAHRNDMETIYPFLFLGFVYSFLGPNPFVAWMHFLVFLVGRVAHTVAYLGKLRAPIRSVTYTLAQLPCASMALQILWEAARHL
Procedure, shortened: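 PGE2 formation read by HTRF after 60 s at 4 °C with 1 μM PGH2 substrate, following 20 min compound preincubation (1% DMSO) with human mPGES-1 microsomes from transfected CHO-K1 cells. Buffer: potassium phosphate, reduced glutathione, pH 7.4; IC50 from activity relative to enzyme-free blank.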

Row | IC50 (A549 cells) [nM] | IC50 (human mPGES-1) [nM] | Compound
1 | 59.6 | 2.8 | COCc1nc2c(C(=O)Nc3cccc(Cl)c3C)cc(NC(=O)c3c(F)cccc3Br)cc2[nH]1 [Example 103, 6-{[(2-Bromo-6-fluorophenyl)carbonyl]amino}-N-(3-chloro-2-methylphenyl)-2-(methoxymethyl)-1H-benzimidazole-4-carboxamide hydrochloride]
2 | 71.1 | 2.9 | COCc1nc2c(C(=O)Nc3cccc(Cl)c3C)cc(NC(=O)c3c(C)cccc3Cl)cc2[nH]1 [Example 104, N-(3-Chloro-2-methylphenyl)-6-{[(2-chloro-6-methylphenyl)carbonyl]amino}-2-(methoxymethyl)-1H-benzimidazole-4-carboxamide hydrochloride]
3 | 325 | 8.9 | COCc1nc2c(C(=O)Nc3cccc(Cl)c3C)cc(NC(=O)c3ccc(C)cc3Cl)cc2[nH]1 [Example 105, N-(3-Chloro-2-methylphenyl)-6-{[(2-chloro-4-methylphenyl)carbonyl]amino}-2-(methoxymethyl)-1H-benzimidazole-4-carboxamide hydrochloride]
4 | 63.8 | 4.5 | COCc1nc2c(C(=O)Nc3cccc(Cl)c3C)cc(NC(=O)c3cc(Br)ccc3Cl)cc2[nH]1 [Example 106, 6-{[(5-Bromo-2-chlorophenyl)carbonyl]amino}-N-(3-chloro-2-methylphenyl)-2-(methoxymethyl)-1H-benzimidazole-4-carboxamide hydrochloride]
5 | 42 | 1.5 | COCc1nc2c(C(=O)Nc3cccc(Cl)c3C)cc(NC(=O)c3cc(Cl)ccc3Br)cc2[nH]1 [Example 107, 6-{[(2-Bromo-5-chlorophenyl)carbonyl]amino}-N-(3-chloro-2-methylphenyl)-2-(methoxymethyl)-1H-benzimidazole-4-carboxamide hydrochloride]
6 | 87.9 | 11.5 | COCc1nc2c(C(=O)Nc3cccc(Cl)c3C)cc(NC(=O)c3cc(C)ccc3Cl)cc2[nH]1 [Example 108, N-(3-Chloro-2-methylphenyl)-6-{[(2-chloro-5-methylphenyl)carbonyl]amino}-2-(methoxymethyl)-1H-benzimidazole-4-carboxamide hydrochloride]
7 | 8.7 | 7.8 | COCc1nc2c(C(=O)Nc3cccc(Cl)c3C)cc(NC(=O)c3cc(C)ccc3C(F)(F)F)cc2[nH]1 [Example 109, N-(3-Chloro-2-methylphenyl)-2-(methoxymethyl)-6-({[5-methyl-2-(trifluoromethyl)phenyl]carbonyl}amino)-1H-benzimidazole-4-carboxamide hydrochloride]
8 | 35.5 | 2.6 | COCc1nc2c(C(=O)Nc3cccc(Cl)c3C)cc(NC(=O)c3cc(C(F)(F)F)ccc3C(F)(F)F)cc2[nH]1 [Example 110, 6-({[2,5-Bis(trifluoromethyl)phenyl]carbonyl}amino)-N-(3-chloro-2-methylphenyl)-2-(methoxymethyl)-1H-benzimidazole-4-carboxamide hydrochloride]
9 | 187 | 2.6 | COCc1nc2c(C(=O)Nc3cccc(Cl)c3C)cc(NC(=O)c3cc(F)ccc3C(F)(F)F)cc2[nH]1 [Example 112, N-(3-Chloro-2-methylphenyl)-6-({[5-fluoro-2-(trifluoromethyl)phenyl]carbonyl}amino)-2-(methoxymethyl)-1H-benzimidazole-4-carboxamide hydrochloride]
10 | 1.2 | ≤ 0.1 | COCc1nc2c(C(=O)Nc3cccc(Cl)c3C)cc(NC(=O)c3c(Cl)cccc3C(F)(F)F)cc2[nH]1 [Example 113, N-(3-Chloro-2-methylphenyl)-6-({[2-chloro-6-(trifluoromethyl)phenyl]carbonyl}amino)-2-(methoxymethyl)-1H-benzimidazole-4-carboxamide hydrochloride]
11 | 8.8 | 3.5 | COCc1nc2c(C(=O)Nc3cccc(Cl)c3C)cc(NC(=O)c3cc(OCCOC(C)C)ccc3Cl)cc2[nH]1 [Example 114, N-(3-Chloro-2-methylphenyl)-6-[({2-chloro-5-[2-(propan-2-yloxy)ethoxy]phenyl}carbonyl)amino]-2-(methoxymethyl)-1H-benzimidazole-4-carboxamide hydrochloride]
12 | 37 | 11.5 | CCOCCOc1ccc(Cl)c(C(=O)Nc2cc(C(=O)Nc3cccc(Cl)c3C)c3nc(COC)[nH]c3c2)c1 [Example 115, 6-({[2-Chloro-5-(2-ethoxyethoxy)phenyl]carbonyl}amino)-N-(3-chloro-2-methylphenyl)-2-(methoxymethyl)-1H-benzimidazole-4-carboxamide hydrochloride]
13 | 252 | 9.7 | COCCCc1ccc(Cl)c(C(=O)Nc2cc(C(=O)Nc3cccc(Cl)c3C)c3nc(COC)[nH]c3c2)c1 [Example 116, 6-({[2-Chloro-5-(3-methoxypropyl)phenyl]carbonyl}amino)-N-(3-chloro-2-methylphenyl)-2-(methoxymethyl)-1H-benzimidazole-4-carboxamide hydrochloride]
14 | 513 | 57.5 | CCOCc1ccc(Cl)c(C(=O)Nc2cc(C(=O)Nc3cccc(Cl)c3C)c3nc(COC)[nH]c3c2)c1 [Example 120, 6-({[2-Chloro-5-(ethoxymethyl)phenyl]carbonyl}amino)-N-(3-chloro-2-methylphenyl)-2-(methoxymethyl)-1H-benzimidazole-4-carboxamide]
15 | 432 | 6.3 | CCOCCOCc1ccc(Cl)c(C(=O)Nc2cc(C(=O)Nc3cccc(Cl)c3C)c3nc(COC)[nH]c3c2)c1 [Example 121, 6-[({2-Chloro-5-[(2-ethoxyethoxy)methyl]phenyl}carbonyl)amino]-N-(3-chloro-2-methylphenyl)-2-(methoxymethyl)-1H-benzimidazole-4-carboxamide hydrochloride]
16 | > 1000 | 9.7 | COCc1nc2c(C(=O)Nc3cccc(Cl)c3C)cc(NC(=O)c3cc(CCC4CC4)ccc3Cl)cc2[nH]1 [Example 122, 6-({[2-Chloro-5-(2-cyclopropylethyl)phenyl]carbonyl}amino)-N-(3-chloro-2-methylphenyl)-2-(methoxymethyl)-1H-benzimidazole-4-carboxamide]
17 | 99.8 | 8.7 | COCc1nc2c(C(=O)Nc3cccc(Cl)c3C)cc(NC(=O)c3cc(CCc4ccccc4)ccc3Cl)cc2[nH]1 [Example 123, N-(3-Chloro-2-methylphenyl)-6-({[2-chloro-5-(2-phenylethyl)phenyl]carbonyl}amino)-2-(methoxymethyl)-1H-benzimidazole-4-carboxamide hydrochloride]
18 | 3.2 | 2.2 | Cc1c(Cl)cccc1NC(=O)c1cc(NC(=O)c2ccccc2C(F)(F)F)cc2[nH]c(C3CCCC3)nc12 [Example 124, N-(3-Chloro-2-methylphenyl)-2-cyclopentyl-6-({[2-(trifluoromethyl)phenyl]carbonyl}amino)-1H-benzimidazole-4-carboxamide hydrochloride]
19 | 56.9 | 25.6 | Cc1c(Cl)cccc1NC(=O)c1cc(NC(=O)c2cc(Cl)ccc2Cl)cc2[nH]c(C3CCCC3)nc12 [Example 125, N-(3-Chloro-2-methylphenyl)-2-cyclopentyl-6-{[(2,5-dichlorophenyl)carbonyl]amino}-1H-benzimidazole-4-carboxamide hydrochloride]
20 | 13.1 | 5.6 | Cc1c(Cl)cccc1NC(=O)c1cc(NC(=O)c2c(F)cccc2Cl)cc2[nH]c(C3CCCC3)nc12 [Example 126, 6-{[(2-Chloro-6-fluorophenyl)carbonyl]amino}-N-(3-chloro-2-methylphenyl)-2-cyclopentyl-1H-benzimidazole-4-carboxamide hydrochloride]
21 | 144 | 6.3 | Cc1c(Cl)cccc1NC(=O)c1cc(NC(=O)c2c(F)cccc2Cl)cc2[nH]c([C@H]3CCCO3)nc12 [Example 127, 6-{[(2-Chloro-6-fluorophenyl)carbonyl]amino}-N-(3-chloro-2-methylphenyl)-2-[(2R)-tetrahydrofuran-2-yl]-1H-benzimidazole-4-carboxamide hydrochloride]
22 | 253 | 1 | Cc1c(Cl)cccc1NC(=O)c1cc(NC(=O)c2c(Cl)cccc2Cl)cc2[nH]c([C@H]3CCCO3)nc12 [Example 128, N-(3-Chloro-2-methylphenyl)-6-{[(2,6-dichlorophenyl)carbonyl]amino}-2-[(2R)-tetrahydrofuran-2-yl]-1H-benzimidazole-4-carboxamide hydrochloride]
23 | 178 | 59.4 | Cc1c(Cl)cccc1NC(=O)c1cc(NC(=O)c2cc(Cl)ccc2Cl)cc2[nH]c([C@H]3CCCO3)nc12 [Example 129, N-(3-Chloro-2-methylphenyl)-6-{[(2,5-dichlorophenyl)carbonyl]amino}-2-[(2R)-tetrahydrofuran-2-yl]-1H-benzimidazole-4-carboxamide hydrochloride]
24 | > 10000 | 3.9 | Cc1c(Cl)cccc1NC(=O)c1cc(NC(=O)c2ccccc2C(F)(F)F)cc2[nH]c([C@@H]3CCC(=O)N3)nc12 [Example 130, N-(3-Chloro-2-methylphenyl)-2-[(2S)-5-oxopyrrolidin-2-yl]-6-({[2-(trifluoromethyl)phenyl]carbonyl}amino)-1H-benzimidazole-4-carboxamide hydrochloride]

Row | Compound | IC50 (A549 cells) [nM] | IC50 (human mPGES-1) [nM]
25 | COCc1nc2c(C(=O)Nc3cccc(Cl)c3C)cc(NC(=O)c3cc(CCCOC(C)(C)C)ccc3Cl)cc2[nH]1 [Example 118, 6-({[5-(3-tert-Butoxypropyl)-2-chlorophenyl]carbonyl}amino)-N-(3-chloro-2-methylphenyl)-2-(methoxymethyl)-1H-benzimidazole-4-carboxamide hydrochloride] | 5.3 | 7.3

From patent US9216968B2, “Heterocyclic derivative and pharmaceutical drug” (NIPPON SHINYAKU CO., LTD., priority 2011, dated 2015)
